ChEMBL document CHEMBL1201862, “PubChem BioAssay data set” (2004)
Active and inactive are the calls of the source.

Tests used:
[1] = biological target: Serine/threonine-protein kinase PAK 1 (Homo sapiens, UniProt Q13153); assay type: functional
[2] = biological target: Proto-oncogene tyrosine-protein kinase Src (Homo sapiens, UniProt P12931); assay type: functional;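 further: SRC entry within a kinome-wide kinase profiling panel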
[3] = biological target: Receptor-type tyrosine-protein kinase FLT3 (Homo sapiens, UniProt P36888); assay type: functional;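 further: FLT3 was tested as one member of a kinome-wide kinase panel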
[4] = biological target: Mitogen-activated protein kinase kinase kinase 20 (Homo sapiens, UniProt Q9NYL2); assay type: functional
[5] = biological target: Dual specificity protein kinase CLK2 (Homo sapiens, UniProt P49760); assay type: functional
[6] = biological target: Casein kinase II subunit alpha (Homo sapiens, UniProt P68400); assay type: functional
[7] = biological target: 3-phosphoinositide-dependent protein kinase 1 (Homo sapiens, UniProt O15530); assay type: functional;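 further: value comes from the Navigating the Kinome panel, PDPK1 member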
[8] = biological target: Serine/threonine-protein kinase pim-3 (Homo sapiens, UniProt Q86V86); assay type: functional;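 further: value obtained as one member of a broad kinase panel profiling effort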
[9] = biological target: Serine/threonine-protein kinase pim-1 (Homo sapiens, UniProt P11309); assay type: functional
[10] = biological target: Receptor tyrosine-protein kinase erbB-4 (Homo sapiens, UniProt Q15303); assay type: functional;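 further: ERBB4 member of a kinome-wide kinase profiling panel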
[11] = biological target: Dual specificity tyrosine-phosphorylation-regulated kinase 4 (Homo sapiens, UniProt Q9NR20); assay type: functional
[12] = biological target: Cyclin-dependent kinase 5 (Homo sapiens, UniProt Q00535); assay type: functional;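 further: CDK5 measured as one member of a kinase profiling panel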
[13] = biological target: Homeodomain-interacting protein kinase 4 (Homo sapiens, UniProt Q8NE63); assay type: functional
[14] = biological target: Serine/threonine-protein kinase Chk2 (Homo sapiens, UniProt O96017); assay type: functional;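 further: CHEK2 entry within a kinome-wide screening panel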
[15] = biological target: Serine/threonine-protein kinase BRSK1 (Homo sapiens, UniProt Q8TDC3); assay type: functional;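 further: measured within a kinome-wide kinase panel, with the target listed as KIAA1811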
[16] = biological target: Macrophage colony-stimulating factor 1 receptor (Homo sapiens, UniProt P07333); assay type: functional;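 further: value comes from the Navigating the Kinome screening panel, CSF1R member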
[17] = biological target: Serine/threonine-protein kinase PAK 4 (Homo sapiens, UniProt O96013); assay type: functional;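 further: value obtained within a kinome profiling panel in which PAK4 was one of the panel members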
[18] = biological target: Mitogen-activated protein kinase 13 (Homo sapiens, UniProt O15264); assay type: functional
[19] = biological target: Ribosomal protein S6 kinase beta-1 (Homo sapiens, UniProt P23443); assay type: functional;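 further: measured as one member of a kinome-wide profiling panel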
[20] = biological target: Fibroblast growth factor receptor 1 (Homo sapiens, UniProt P11362); assay type: functional
[21] = biological target: Serine/threonine-protein kinase 17A (Homo sapiens, UniProt Q9UEE5); assay type: functional
[22] = biological target: T1, Histone-lysine N-methyltransferase NSD2 (Homo sapiens, UniProt O96028); assay type: biochemical
T1 sequence (O96028 whole entry): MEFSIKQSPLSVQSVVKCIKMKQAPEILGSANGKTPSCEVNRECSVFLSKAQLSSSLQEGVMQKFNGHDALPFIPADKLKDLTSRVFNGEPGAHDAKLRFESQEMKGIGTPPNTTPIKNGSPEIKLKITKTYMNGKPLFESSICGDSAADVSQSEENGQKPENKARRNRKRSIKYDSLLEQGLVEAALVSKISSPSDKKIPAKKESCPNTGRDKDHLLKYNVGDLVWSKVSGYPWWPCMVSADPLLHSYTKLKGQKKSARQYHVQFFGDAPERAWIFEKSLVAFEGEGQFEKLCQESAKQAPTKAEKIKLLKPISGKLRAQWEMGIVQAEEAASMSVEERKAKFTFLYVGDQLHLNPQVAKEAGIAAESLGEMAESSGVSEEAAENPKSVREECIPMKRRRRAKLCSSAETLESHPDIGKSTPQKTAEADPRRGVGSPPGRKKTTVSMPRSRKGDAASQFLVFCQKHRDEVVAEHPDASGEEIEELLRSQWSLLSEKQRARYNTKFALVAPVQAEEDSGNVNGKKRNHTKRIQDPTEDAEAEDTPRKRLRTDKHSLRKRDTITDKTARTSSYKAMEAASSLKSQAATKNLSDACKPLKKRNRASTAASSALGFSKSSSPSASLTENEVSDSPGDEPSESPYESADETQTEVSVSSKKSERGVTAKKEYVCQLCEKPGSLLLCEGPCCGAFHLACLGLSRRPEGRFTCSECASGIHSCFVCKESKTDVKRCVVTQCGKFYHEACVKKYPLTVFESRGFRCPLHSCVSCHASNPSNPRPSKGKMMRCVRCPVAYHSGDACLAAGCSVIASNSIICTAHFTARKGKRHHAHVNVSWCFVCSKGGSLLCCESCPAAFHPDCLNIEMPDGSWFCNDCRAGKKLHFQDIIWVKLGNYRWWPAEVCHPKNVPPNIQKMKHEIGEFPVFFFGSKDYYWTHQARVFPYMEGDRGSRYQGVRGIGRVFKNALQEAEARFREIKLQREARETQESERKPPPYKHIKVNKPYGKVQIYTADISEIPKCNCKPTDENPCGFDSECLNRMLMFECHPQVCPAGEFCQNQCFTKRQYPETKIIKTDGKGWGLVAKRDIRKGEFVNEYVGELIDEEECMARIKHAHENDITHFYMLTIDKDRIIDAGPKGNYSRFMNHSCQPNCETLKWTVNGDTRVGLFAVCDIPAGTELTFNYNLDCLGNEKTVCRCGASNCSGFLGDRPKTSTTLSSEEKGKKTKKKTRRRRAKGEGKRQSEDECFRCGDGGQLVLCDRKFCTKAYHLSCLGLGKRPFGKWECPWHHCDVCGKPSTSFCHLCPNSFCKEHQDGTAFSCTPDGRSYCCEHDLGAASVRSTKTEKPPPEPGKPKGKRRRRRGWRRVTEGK

[23] = biological target: Genome polyprotein (dengue virus type 2, UniProt P29990); assay: Dengue-2 NS5 methyltransferase inhibitors, primary screen, biochemical, confirmation dose response (AID 588689); assay type: functional

Dual specificity tyrosine-phosphorylation-regulated kinase 4, sequence (Q9NR20 whole entry): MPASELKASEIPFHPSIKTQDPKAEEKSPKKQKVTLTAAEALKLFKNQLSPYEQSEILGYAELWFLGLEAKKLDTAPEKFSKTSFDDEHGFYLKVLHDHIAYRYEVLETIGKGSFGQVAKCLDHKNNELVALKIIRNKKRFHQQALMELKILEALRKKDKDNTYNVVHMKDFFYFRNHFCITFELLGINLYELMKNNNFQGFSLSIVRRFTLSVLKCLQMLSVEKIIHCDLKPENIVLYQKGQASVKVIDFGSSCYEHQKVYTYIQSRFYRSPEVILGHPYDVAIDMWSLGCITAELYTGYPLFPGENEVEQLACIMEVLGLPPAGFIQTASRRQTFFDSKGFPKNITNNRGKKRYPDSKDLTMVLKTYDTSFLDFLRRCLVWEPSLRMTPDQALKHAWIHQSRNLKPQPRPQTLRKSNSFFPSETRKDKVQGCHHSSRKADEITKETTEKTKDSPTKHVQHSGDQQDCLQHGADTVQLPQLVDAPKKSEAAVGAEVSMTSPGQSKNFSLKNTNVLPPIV
Casein kinase II subunit alpha, sequence (P68400 whole entry): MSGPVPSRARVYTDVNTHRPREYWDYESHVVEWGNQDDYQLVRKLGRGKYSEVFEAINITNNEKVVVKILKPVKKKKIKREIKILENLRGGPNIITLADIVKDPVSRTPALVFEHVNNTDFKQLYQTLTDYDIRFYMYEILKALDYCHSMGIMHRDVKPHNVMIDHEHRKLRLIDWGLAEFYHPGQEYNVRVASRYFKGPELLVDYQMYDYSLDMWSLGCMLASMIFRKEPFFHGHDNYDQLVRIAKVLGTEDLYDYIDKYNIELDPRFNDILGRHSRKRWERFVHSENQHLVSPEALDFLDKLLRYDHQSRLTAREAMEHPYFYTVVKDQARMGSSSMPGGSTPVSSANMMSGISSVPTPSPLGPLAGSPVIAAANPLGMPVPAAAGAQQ
Mitogen-activated protein kinase kinase kinase 20, sequence (Q9NYL2 whole entry): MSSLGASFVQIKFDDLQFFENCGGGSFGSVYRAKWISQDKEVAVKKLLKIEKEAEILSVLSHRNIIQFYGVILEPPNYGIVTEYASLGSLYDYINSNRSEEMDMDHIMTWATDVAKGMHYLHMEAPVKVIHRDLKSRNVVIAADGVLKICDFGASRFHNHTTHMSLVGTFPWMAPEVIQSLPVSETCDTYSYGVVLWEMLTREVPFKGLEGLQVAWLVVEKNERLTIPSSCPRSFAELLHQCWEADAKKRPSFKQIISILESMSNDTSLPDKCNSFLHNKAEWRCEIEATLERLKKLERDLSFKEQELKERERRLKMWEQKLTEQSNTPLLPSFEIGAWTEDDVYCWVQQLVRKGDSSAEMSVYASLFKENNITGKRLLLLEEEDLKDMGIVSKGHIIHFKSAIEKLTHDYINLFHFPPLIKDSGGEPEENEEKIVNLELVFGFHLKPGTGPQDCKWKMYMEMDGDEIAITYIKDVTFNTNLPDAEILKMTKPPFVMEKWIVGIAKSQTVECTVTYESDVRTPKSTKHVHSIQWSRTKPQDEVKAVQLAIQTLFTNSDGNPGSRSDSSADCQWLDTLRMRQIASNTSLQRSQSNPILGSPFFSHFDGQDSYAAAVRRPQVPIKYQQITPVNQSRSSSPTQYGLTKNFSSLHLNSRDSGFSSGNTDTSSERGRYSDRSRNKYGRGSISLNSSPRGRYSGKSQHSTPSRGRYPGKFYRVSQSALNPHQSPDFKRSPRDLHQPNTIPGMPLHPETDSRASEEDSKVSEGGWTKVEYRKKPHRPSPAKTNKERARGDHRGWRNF
Ribosomal protein S6 kinase beta-1, sequence (P23443 whole entry): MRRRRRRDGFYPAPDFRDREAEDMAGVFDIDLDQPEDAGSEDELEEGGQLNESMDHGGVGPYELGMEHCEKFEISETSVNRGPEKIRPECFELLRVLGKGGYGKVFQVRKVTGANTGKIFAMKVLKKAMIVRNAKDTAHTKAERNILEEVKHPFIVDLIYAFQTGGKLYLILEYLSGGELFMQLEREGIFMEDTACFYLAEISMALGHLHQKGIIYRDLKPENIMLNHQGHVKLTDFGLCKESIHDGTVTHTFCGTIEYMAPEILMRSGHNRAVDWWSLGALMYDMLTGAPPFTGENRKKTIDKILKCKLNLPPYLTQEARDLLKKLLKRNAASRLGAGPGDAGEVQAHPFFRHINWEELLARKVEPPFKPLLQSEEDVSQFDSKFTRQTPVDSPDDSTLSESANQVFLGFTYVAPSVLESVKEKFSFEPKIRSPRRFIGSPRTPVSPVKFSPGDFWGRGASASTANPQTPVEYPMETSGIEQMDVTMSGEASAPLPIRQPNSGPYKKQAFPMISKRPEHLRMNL
Serine/threonine-protein kinase PAK 1, sequence (Q13153 whole entry): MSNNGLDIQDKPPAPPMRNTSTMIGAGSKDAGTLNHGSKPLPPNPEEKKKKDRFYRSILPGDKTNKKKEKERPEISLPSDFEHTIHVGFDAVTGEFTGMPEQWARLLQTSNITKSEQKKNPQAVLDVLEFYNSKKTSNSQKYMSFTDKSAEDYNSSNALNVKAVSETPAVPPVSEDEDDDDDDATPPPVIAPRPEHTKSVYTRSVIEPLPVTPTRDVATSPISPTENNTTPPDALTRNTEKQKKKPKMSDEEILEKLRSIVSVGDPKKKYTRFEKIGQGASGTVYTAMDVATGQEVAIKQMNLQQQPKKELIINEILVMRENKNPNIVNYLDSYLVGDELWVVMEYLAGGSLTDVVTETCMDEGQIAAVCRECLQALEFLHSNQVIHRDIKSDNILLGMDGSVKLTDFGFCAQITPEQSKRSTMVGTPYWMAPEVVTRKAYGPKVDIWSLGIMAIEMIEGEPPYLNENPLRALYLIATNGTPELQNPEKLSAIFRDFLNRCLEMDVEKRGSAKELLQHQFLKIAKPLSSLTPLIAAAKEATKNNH
3-phosphoinositide-dependent protein kinase 1, sequence (O15530 whole entry): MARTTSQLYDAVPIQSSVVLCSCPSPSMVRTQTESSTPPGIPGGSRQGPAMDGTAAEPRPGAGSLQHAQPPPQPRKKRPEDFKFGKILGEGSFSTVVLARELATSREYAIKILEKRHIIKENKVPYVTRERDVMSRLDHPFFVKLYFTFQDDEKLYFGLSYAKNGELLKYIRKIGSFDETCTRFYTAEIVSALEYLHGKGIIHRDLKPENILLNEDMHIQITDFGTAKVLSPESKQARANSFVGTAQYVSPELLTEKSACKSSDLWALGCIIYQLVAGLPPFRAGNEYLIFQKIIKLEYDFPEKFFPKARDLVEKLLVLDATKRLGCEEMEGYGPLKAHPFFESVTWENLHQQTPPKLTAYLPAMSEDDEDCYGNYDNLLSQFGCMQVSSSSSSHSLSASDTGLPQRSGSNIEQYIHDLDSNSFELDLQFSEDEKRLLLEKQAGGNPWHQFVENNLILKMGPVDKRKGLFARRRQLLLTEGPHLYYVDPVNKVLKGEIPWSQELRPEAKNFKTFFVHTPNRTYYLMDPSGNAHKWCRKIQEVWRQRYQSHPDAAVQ
Serine/threonine-protein kinase PAK 4, sequence (O96013 whole entry): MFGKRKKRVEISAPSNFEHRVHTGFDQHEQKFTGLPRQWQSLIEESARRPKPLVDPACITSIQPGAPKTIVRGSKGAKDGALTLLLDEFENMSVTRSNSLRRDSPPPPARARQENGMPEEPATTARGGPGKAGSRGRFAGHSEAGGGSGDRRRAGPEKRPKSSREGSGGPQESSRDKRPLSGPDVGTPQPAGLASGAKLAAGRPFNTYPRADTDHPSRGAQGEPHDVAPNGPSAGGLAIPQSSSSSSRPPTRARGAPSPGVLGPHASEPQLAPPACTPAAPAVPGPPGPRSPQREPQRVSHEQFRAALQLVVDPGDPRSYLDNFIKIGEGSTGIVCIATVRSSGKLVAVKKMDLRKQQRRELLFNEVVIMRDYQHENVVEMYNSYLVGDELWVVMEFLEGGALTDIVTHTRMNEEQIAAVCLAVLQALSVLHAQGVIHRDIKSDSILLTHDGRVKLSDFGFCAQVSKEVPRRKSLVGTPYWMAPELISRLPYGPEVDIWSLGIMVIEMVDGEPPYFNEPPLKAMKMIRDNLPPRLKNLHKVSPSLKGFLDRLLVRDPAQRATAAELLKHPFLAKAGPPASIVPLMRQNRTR
Cyclin-dependent kinase 5, sequence (Q00535 whole entry): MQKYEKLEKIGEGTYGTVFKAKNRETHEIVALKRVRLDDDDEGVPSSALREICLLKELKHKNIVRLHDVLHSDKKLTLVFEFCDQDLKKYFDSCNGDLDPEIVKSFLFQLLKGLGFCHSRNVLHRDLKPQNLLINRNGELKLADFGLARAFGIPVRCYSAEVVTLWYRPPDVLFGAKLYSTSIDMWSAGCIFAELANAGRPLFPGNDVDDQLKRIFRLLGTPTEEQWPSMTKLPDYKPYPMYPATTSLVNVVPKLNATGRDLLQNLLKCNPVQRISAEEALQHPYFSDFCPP
Serine/threonine-protein kinase pim-1, sequence (P11309 whole entry): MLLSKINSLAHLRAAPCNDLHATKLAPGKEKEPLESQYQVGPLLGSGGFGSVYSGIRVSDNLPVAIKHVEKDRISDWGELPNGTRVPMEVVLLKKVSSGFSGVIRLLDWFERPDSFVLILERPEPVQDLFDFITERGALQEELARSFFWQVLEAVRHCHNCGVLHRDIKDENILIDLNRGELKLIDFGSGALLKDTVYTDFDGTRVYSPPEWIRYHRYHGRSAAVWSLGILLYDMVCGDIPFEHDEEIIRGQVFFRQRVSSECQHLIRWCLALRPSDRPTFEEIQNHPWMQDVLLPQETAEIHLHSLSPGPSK

`Cn1cncc1C(OCc1c(-c2ccc(OC(F)(F)F)cc2)cc(C#N)c(=O)n1C)c1ccc(C#N)cc1` (stereo not drawn) was tested, and the Ki [1] was > 10 µM (inactive), the Ki [2] was > 2 µM (inactive) and the Ki [3] was 0.631 µM (active). The Ki [4] was > 7.94 µM (inactive), the Ki [5] was > 7.94 µM (inactive) and the Ki [6] was > 6.31 µM (inactive). For the same compound, the Ki [7] was > 3.98 µM (inactive), the Ki [8] was > 7.94 µM (inactive) and the Ki [9] was > 10 µM (inactive). For the same compound, the Ki [10] was > 3.98 µM (inactive), the Ki [11] was > 7.94 µM (inactive) and the Ki [12] was > 10 µM (inactive). For the same compound, the Ki [13] was > 7.94 µM (inactive), the Ki [14] was > 1.58 µM (inactive) and the Ki [15] was > 10 µM (inactive). For the same compound, the Ki [16] was > 2.51 µM (inactive), the Ki [17] was > 5.01 µM (inactive) and the Ki [18] was > 7.94 µM (inactive). The Ki [19] was 1.58 µM (active), the Ki [20] was > 5.01 µM (inactive) and the Ki [21] was > 3.98 µM (inactive).
With `CCc1ccc(S(=O)(=O)/N=C2\C=C(NS(=O)(=O)c3ccccc3)C(=O)c3ccccc32)cc1` the AC50 [22] was 5.4 µM (active) and the IC50 [23] was 22.9 µM (active).
